Data reported in patent publication US12102648B2, “Orally-bioavailable nucleoside analogs” (priority 2021, dated 2024).
Where two headings read alike, the source gives them in different places.

Test: in vitro
Assay type: in vitro ADME
Settings: human
Protocol: The bidirectional permeability of compounds across the Caco-2 cell monolayer was assessed. The Caco-2 model is a widely used in vitro model for small intestinal absorption and potential for efflux.
Cell culture. Caco-2 cells were grown in DMEM supplemented with 10% fetal bovine serum (FBS), 1% Penicillin-Streptomycin and 1% MEM NEAA. The cells were incubated at 37° C., 5% CO2/95% air and saturated humidity. After reaching 80-90% confluency, the cells were gently detached with trypsin. Cells at passage 39 were seeded on the 24-well BD insert system at the density of 8×10^4 cells/cm^2 and cultured for 19 days with medium changed every 2-3 days. Measure the transepithelial electrical resistance (TEER) value of each well. The wells can be used only when their TEER values are greater than 600 Ohms/cm^2.
Transport assay. After removing the cell culture medium from the 24-well insert plate, the cells were rinsed with warm transport buffer. Appropriate dosing and receiving solutions were applied to the donor and receiver chambers to initiate the transport assay in apical to basolateral (A to B) or basolateral to apical (B to A) directions ([…] for apical and basolateral wells, respectively). Duplicate wells in each direction were used for the test compound and control compound. The plate was incubated in CO2 incubator at 37° C., with 5% CO2/95% air and saturated humidity without shaking. The sample after 10-minute incubation was used as the T0 sample, and the sample after 90-minute incubation was used as the T90 sample. To and T90 samples were collected from the donor and receiver side of each well at the designed timepoint, mixed with the transport buffer and acetonitrile/MeOH (1:1, v/v) and the internal standard for LC/MS/MS analysis. All samples were vortexed and centrifuged at 4000 rpm at 4° C. for 15 minutes, diluted with pure water and stored at 4° C. before bioanalysis by LC/MS/MS.
Sample analysis. The concentrations of test compounds and control compounds in Caco-2 cells were quantitatively determined by LC/MS/MS method after protein precipitation.
Calculations. The apparent permeability (Papp, cm/s), efflux ratio (ER) and recovery parameters were calculated for Caco-2 drug transport assay using the following equations:
[formula] [formula] where VR is the solution volume in the receiver chamber (0.4 mL on the apical side, 1.2 mL on the basolateral side); Area is the surface area for the insert membrane, i.e., 0.3 cm^2 for the area of the monolayer; Time is incubation time, expressed in seconds, i.e., 5400 s (90 min) for the current experiment; Co is the initial concentration of test compound or peak area ratio of control compounds in the donor chamber (μM); VD is the volume in the donor chambers (0.4 mL on the apical side, 1.2 mL on the basolateral side); CD and CR are the final concentrations of test compounds or peak area ratio of control compounds in donor and receiver chambers, respectively.
Compounds with Papp<1.0 are classified as low permeability, Papp between 1-10 are classified as medium permeability, and Papp≥10 are classified as high permeability. An efflux ratio (ER)>2 indicates the compounds are potential substrates for intestinal cell efflux transporters.

[1] = Caco-2 monolayer, apical to basolateral, 90-minute incubation, read-out: Papp, A-B
[2] = Caco-2 monolayer, basolateral to apical, 90-minute incubation, read-out: Papp, B-A
[3] = Caco-2 monolayer, ER>2 indicates potential efflux transporter substrate, read-out: ER (efflux ratio)

Row | SMILES | Papp A→B at 90 min (Caco-2) | Papp B→A at 90 min (Caco-2) | efflux ratio at 90 min (Caco-2) | Papp A→B at 90 min [1] | Papp B→A at 90 min [2] | efflux ratio at 90 min [3]
1 | CC(C)(C)C(=O)OCO[C@H]1[C@@H](O)[C@](C#N)(c2ccc3c(N)ncnn23)O[C@@H]1COC(=O)CC1CCCCC1 [Compound 32, (((2R,3S,4R,5R)-5-(4-aminopyrrolo[2,1-f][1,2,4]triazin-7-yl)-5-cyano-2-((2-cyclohexylacetoxy)methyl)-4-hydroxytetrahydrofuran-3-yl)oxy)methyl pivalate] | 6.9 ×10⁻⁶ cm/s | 5.5 ×10⁻⁶ cm/s | 0.8 | – | – | –
2 | CC(C)[C@H](N)C(=O)OC[C@H]1O[C@@](C#N)(c2ccc3c(NC(=O)c4ccccc4)ncnn23)[C@H](O)[C@@H]1O [Compound 102, ((2R,3S,4R,5R)-5-(4-benzamidopyrrolo[2,1-f][1,2,4]triazin-7-yl)-5-cyano-3,4-dihydroxytetrahydrofuran-2-yl)methyl L-valinate] | 0.02 ×10⁻⁶ cm/s | 6.7 ×10⁻⁶ cm/s | 280 | – | – | –
3 | CCC(=O)Nc1nc(NC)c2ncn([C@@H]3O[C@H](COC(C)=O)[C@@H](OC(=O)CC)[C@@]3(C)F)c2n1 [Compound 331, (2R,3R,4R,5R)-2-(acetoxymethyl)-4-fluoro-4-methyl-5-(6-(methylamino)-2-propionamido-9H-purin-9-yl)tetrahydrofuran-3-yl propionate] | 7.9 ×10⁻⁶ cm/s | 16 ×10⁻⁶ cm/s | 2.1 | – | – | –
4 | CNc1nc(N)nc2c1ncn2[C@@H]1O[C@H](COC(=O)CC(C)C)[C@@H](OC(=O)CC(C)C)[C@@]1(C)F [Compound 312, (2R,3R,4R,5R)-5-(2-amino-6-(methylamino)-9H-purin-9-yl)-4-fluoro-4-methyl-2-(((3-methylbutanoyl)oxy)methyl)tetrahydrofuran-3-yl 3-methylbutanoate] | 23 ×10⁻⁶ cm/s | 6.5 ×10⁻⁶ cm/s | 0.28 | – | – | –
5 | CCC(=O)O[C@H]1[C@@H](O)[C@](C#N)(c2ccc3c(N)ncnn23)O[C@@H]1COC(=O)Cc1ccccc1 [Compound 47, (2R,3S,4R,5R)-5-(4-aminopyrrolo[2,1-f][1,2,4]triazin-7-yl)-5-cyano-4-hydroxy-2-((2-phenylacetoxy)methyl)tetrahydrofuran-3-yl propionate] | – | – | – | 2 ×10⁻⁶ cm/s | 5.1 ×10⁻⁶ cm/s | 2.5
6 | CNc1nc(N)nc2c1ncn2[C@@H]1O[C@H](COC(=O)Cc2ccccc2)[C@@H](OC(C)=O)[C@@]1(C)F [Compound 217, ((2R,3R,4R,5R)-3-acetoxy-5-(2-amino-6-(methylamino)-9H-purin-9-yl)-4-fluoro-4-methyltetrahydrofuran-2-yl)methyl 2-phenylacetate] | – | – | – | 14 ×10⁻⁶ cm/s | 6.1 ×10⁻⁶ cm/s | 0.45
7 | N#C[C@@]1(c2ccc3c(N)ncnn23)O[C@H](COC(=O)Cc2ccccc2)[C@@H](OC(=O)Cc2ccccc2)[C@H]1O [Compound 44, (2R,3S,4R,5R)-5-(4-aminopyrrolo[2,1-f][1,2,4]triazin-7-yl)-5-cyano-4-hydroxy-2-((2-phenylacetoxy)methyl)tetrahydrofuran-3-yl 2-phenylacetate] | – | – | – | 9.8 ×10⁻⁶ cm/s | 25 ×10⁻⁶ cm/s | 2.5
8 | CC(C)CC(=O)OC[C@H]1O[C@@](C#N)(c2ccc3c(NC(=O)[C@@H](N)Cc4ccc(F)cc4)ncnn23)[C@H](O)[C@@H]1O [Compound 101, ((2R,3S,4R,5R)-5-(4-((S)-2-amino-3-(4-fluorophenyl)propanamido)pyrrolo[2,1-f][1,2,4]triazin-7-yl)-5-cyano-3,4-dihydroxytetrahydrofuran-2-yl)methyl 3-methylbutanoate] | 0.07 ×10⁻⁶ cm/s | 13 ×10⁻⁶ cm/s | 175 | – | – | –
9 | CC(C)CC(=O)OC[C@H]1O[C@@](C#N)(c2ccc3c(NC(=O)[C@@H](N)C(C)C)ncnn23)[C@H](O)[C@@H]1O [Compound 117, [(2R,3S,4R,5R)-5-{4-[(2S)-2-amino-3-methylbutanamido]pyrrolo[2,1-f][1,2,4]triazin-7-yl}-5-cyano-3,4-dihydroxyoxolan-2-yl]methyl 3-methylbutanoate] | 0.22 ×10⁻⁶ cm/s | 3.3 ×10⁻⁶ cm/s | 15 | – | – | –
